Reference: ChEMBL document CHEMBL3632521, “A study of ad-proline peptidomimetic inhibitor of melanoma and endothelial cell invasion through activity towards MMP-2 and MMP-9” (Medchemcomm, 2015)
Active and inactive are the calls of the source. The calls are words filed in the database; no cut-off is given here.

Key:
[1] = target: T1, Matrix metalloproteinase-9 (Homo sapiens, UniProt P14780); assay: Inhibition MMP-9 (unknown origin) using Mca-Lys-Pro-Leu-Gly-Leu-Dpa-Ala-Arg-NH2 as substrate preincubated for 5 mins followed by substrate addition measured for 30 mins by fluorometric assay
[2] = target: 72 kDa type IV collagenase (Homo sapiens, UniProt P08253); assay: Inhibition MMP-2 (unknown origin) using Mca-Lys-Pro-Leu-Gly-Leu-Dpa-Ala-Arg-NH2 as substrate preincubated for 5 mins followed by substrate addition measured for 30 mins by fluorometric assay
[3] = target: T1, Matrix metalloproteinase-9; assay: Inhibition of gelatinolytic activity of pro-MMP9 in human A375P cells assessed as reduction in active form of protein by gelatin zymography; type: cell-based
[4] = Cytostatic activity in human A375P cells at 2.5 to 50 uM after 24 hrs by trypan blue based inverted-phase microscopic analysis; type: ADME, cell-based
[5] = Cytotoxic activity in human A375P cells at 2.5 to 50 uM after 24 hrs by trypan blue based inverted-phase microscopic analysis; type: cell-based
[6] = Cytostatic activity in human A375P cells at 2.5 to 50 uM after 72 hrs by trypan blue based inverted-phase microscopic analysis; type: ADME, cell-based
A375P = assay: Antiinvasive activity in human A375P cells assessed as reduction in tumor cell migration at 20 uM measured for 6 hrs by matrigel assay; type: functional, cell-based
[7] = target: T1, Matrix metalloproteinase-9; assay: Inhibition of gelatinolytic activity of pro-MMP9 in human endothelial progenitor cells assessed as reduction in active form of protein at 20 uM by gelatin zymography
EPC = assay: Antiinvasive activity in human endothelial progenitor cells at 20 uM after 24 hrs by matrigel assay; type: functional
Mus musculus = species on record: Mus musculus; assay: Antiangiogenic activity in FVB mouse receiving 20 uM compound containing matrigel mixtures with heparin resuspended in EGM-2 medium assessed as reduction in capillary network formation after 5 days by microscopy based matrigel sponge assay; type: functional, organism-based

Chain of 72 kDa type IV collagenase (P08253 whole entry): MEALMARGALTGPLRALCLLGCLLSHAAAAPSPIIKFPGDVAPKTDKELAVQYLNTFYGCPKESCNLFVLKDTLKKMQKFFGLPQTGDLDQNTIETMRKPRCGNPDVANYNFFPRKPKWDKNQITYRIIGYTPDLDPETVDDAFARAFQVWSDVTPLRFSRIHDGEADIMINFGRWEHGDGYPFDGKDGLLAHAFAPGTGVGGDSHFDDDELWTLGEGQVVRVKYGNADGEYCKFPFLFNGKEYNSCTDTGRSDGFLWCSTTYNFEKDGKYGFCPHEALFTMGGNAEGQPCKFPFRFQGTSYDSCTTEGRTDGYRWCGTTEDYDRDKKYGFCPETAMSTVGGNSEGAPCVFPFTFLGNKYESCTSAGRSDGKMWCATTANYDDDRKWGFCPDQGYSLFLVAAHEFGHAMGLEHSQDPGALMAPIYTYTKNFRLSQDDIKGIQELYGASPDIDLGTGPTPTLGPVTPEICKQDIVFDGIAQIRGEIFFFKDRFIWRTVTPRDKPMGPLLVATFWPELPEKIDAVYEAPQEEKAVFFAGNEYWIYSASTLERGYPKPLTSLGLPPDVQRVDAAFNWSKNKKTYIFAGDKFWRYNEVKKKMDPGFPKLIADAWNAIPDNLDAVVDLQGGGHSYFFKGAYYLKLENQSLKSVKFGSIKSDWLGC
T1 sequence (P14780 whole entry): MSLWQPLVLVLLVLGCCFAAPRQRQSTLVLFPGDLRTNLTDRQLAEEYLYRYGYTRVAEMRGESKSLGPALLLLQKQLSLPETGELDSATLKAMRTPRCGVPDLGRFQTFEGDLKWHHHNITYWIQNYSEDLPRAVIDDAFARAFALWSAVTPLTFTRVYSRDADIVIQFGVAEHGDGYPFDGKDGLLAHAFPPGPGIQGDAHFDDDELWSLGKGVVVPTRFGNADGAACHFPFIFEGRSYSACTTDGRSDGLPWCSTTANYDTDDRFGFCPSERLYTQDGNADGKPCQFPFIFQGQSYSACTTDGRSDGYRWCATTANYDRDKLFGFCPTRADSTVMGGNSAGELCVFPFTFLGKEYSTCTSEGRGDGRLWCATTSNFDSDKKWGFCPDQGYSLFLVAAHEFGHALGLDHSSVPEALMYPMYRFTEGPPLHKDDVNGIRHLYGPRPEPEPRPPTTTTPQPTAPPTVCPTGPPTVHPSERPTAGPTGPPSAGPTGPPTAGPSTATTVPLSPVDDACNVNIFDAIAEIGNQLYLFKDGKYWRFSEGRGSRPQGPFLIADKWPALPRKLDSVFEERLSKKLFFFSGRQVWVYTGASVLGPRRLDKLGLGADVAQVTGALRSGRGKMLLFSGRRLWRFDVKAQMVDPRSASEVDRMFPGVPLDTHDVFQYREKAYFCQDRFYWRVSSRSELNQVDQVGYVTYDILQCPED

Compound | IC50 ([2]; read-out: IC50) [nM] | IC50 ([1]; read-out: IC50) [nM] | IC50 [2] | also measured
O=C(N[C@H]1C[C@H](C(=O)NO)N(S(=O)(=O)c2ccc(Cl)c(Cl)c2)C1)c1cccs1 | – | – | – | IC50 [1]: Not Active
O=C(N[C@@H]1C[C@H](C(=O)NO)N(S(=O)(=O)c2ccc(Cl)c(Cl)c2)C1)c1cccs1 | 144 | 100 | – | –
O=C(NO)[C@H]1C[C@H](n2cc(-c3ccccc3)nn2)CN1S(=O)(=O)c1ccc(Cl)c(Cl)c1 | – | 1200 | – | –
COc1ccc(C(=O)N[C@H]2C[C@H](C(=O)NO)N(S(=O)(=O)c3ccc(Cl)c(Cl)c3)C2)c(OC)c1 | – | 1710 | Not Active | –
O=C(NO)[C@H]1C[C@@H](NS(=O)(=O)c2ccc(-c3ccccc3)cc2)CN1S(=O)(=O)c1ccc(Cl)c(Cl)c1 | – | 590 | Not Active | –
O=C(NO)[C@H]1C[C@@H](OCc2ccccc2)CN1S(=O)(=O)c1ccc(Cl)c(Cl)c1 | – | 900 | Not Active | –
COc1ccc(C(=O)N[C@@H]2C[C@H](C(=O)NO)N(S(=O)(=O)c3ccc(Cl)c(Cl)c3)C2)c(OC)c1 | 450 | 560 | – | inhibition [3]: Dose-dependent effect; Activity [4]: Non-toxic; Activity [5]: Non-toxic; Activity [6]: Toxic; Activity (A375P): Active; inhibition [7]: Active; Activity (EPC): Active; Activity (Mus musculus): Active
O=C(/C=C/c1ccco1)N[C@H]1C[C@H](C(=O)NO)N(S(=O)(=O)c2ccc(Cl)c(Cl)c2)C1 | – | 360 | – | –
O=C(NO)[C@H]1C[C@H](NS(=O)(=O)c2ccc(-c3ccccc3)cc2)CN1S(=O)(=O)c1ccc(Cl)c(Cl)c1 | 360 | 60 | – | –
